{"source": "patent US20220354825A1", "about": "“PHARMACEUTICAL COMPOSITION FOR PREVENTION OR TREATMENT OF INFLAMMATORY DISEASES COMPRISING NAPHTHOQUINONE DERIVATIVE” (LMITO THERAPEUTICS INC., priority 2019, published 2022)", "key": {"NQO1": {"target": "NQO1 (Homo sapiens, UniProt P15559)", "sequence (P15559 whole entry, species assumed)": "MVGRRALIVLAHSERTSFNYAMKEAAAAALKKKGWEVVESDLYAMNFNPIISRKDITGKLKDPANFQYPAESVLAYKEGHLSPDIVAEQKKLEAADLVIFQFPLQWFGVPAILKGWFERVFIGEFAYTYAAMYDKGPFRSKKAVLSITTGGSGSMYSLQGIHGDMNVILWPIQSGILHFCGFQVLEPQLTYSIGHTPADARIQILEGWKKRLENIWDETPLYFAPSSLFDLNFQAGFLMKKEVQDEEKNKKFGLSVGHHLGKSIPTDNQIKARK", "experiment": "In vitro NQO1 enzyme activity assay (cytochrome C reduction)", "type": "biochemical", "conditions": "NQO1 2 ng, Compound 0.2 μM", "experimental": "In order to evaluate the enzymatic activities of compounds on NQO1, the experiments were performed as follows:\nA compound to measure NQO1 enzyme activity was dissolved in DMSO to prepare a 10 mM stock solution, which was then diluted with DMSO to prepare a working solution at a concentration of 250 μM. For an enzyme reaction solution, 50 μL of 1.54 mM cytochrome C solution was added to 900 μL of 50 mM Tris-HCl (pH 7.5) solution containing 0.14% BSA, and then the prepared working solution at 250 μM was added. After adding 20 μL of 100 ng/ml NQO1 protein, […] solution was added so as to adjust the total volume to 1 mL, and then the change of absorbance was measured at 550 nm for 10 minutes. The change of absorbance was measured at 550 nm for 10 minutes using 1 mL cuvette. The reaction rate was observed through the increase in absorbance as cytochrome C was reduced at 550 nm for 10 minutes, to obtain an absorbance value, and the activity for NQO1 was measured as the reduced amount of cytochrome C (nmol reduced cytochrome C/min/μg NQO1 protein).\nAbsorption coefficient of Cytochrome C: 21.1 (μmol/mL)-1 cm^−1\nEquipment=Cary 100 UV-Vis Spectrophotometer"}, "[1]": {"tested_on": "primary bone marrow-derived macrophages (BMDMs)", "experiment": "NAD+ measurement in macrophages after LPS/ATP", "type": "cell-based, C57BL/6 mouse", "conditions": "LPS/ATP + 1, 5, 10 μM compound", "experimental": "(§1) The primary bone marrow-derived macrophages (BMDMs) isolated from C57BL/6 mouse were incubated in DMEM medium involving macrophage colony-stimulating factor (M-CSF; R&D Systems, 416-ML) during 3 to 5 days. NAD^+ production and NAD^+/NADH ratio were measured in isolated BMDMs through using NAD/NADH Assay Kit(ab65348) supplied by Abcam company. All assays were performed according to the manufacturer's product manual.\nFIGS. 1 to 5 show NAD^+ changes in the macrophage when treated with compounds 6, 16, 17, 22 and 27 respectively (in order from left in the figure: Untreatment, LPS/ATP, LPS/ATP+1 μM compound, LPS/ATP+5 μM compound, and LPS/ATP+10 μM compound)."}, "[2]": {"tested_on": "primary bone marrow-derived macrophages (BMDMs)", "experiment": "NAD+/NADH measurement in macrophages after LPS/ATP", "type": "cell-based, C57BL/6 mouse", "conditions": "LPS/ATP + 1, 5, 10 μM compound", "experimental": "as §1, with “ratio was” for “ratio were”\nFIGS. 6 to 10 show NAD^+/NADH ratio changes in the macrophage when treated with compounds 6, 16, 17, and 27 respectively (in order from left in the figure: Untreatment, LPS/ATP, LPS/ATP+1 μM compound, LPS/ATP+5 μM compound, and LPS/ATP+10 μM)."}, "[3]": {"tested_on": "primary bone marrow-derived macrophages (BMDMs)", "experiment": "Mitochondrial reactive oxygen species measurement (MitoSox, FACS)", "type": "cell-based, C57BL/6 mouse", "conditions": "LPS/ATP + 1, 5, 10 μM compound", "experimental": "The primary bone marrow-derived macrophages (BMDMs) isolated from C57BL/6 mouse were incubated in DMEM medium involving macrophage colony-stimulating factor (M-CSF; R&D Systems, 416-ML) during 3 to 5 days. Isolated BMDMs were stained by 1 μM MitoSox (Molecular Probes M36008) for 15 min. After washing the cells into PBS and collecting the cells, mitochondrial reactive oxygen species was measured by FACS.\nFIGS. 11 and 12 show mitochondrial reactive oxygen species changes in the macrophage when treated with compounds 6 and 27, respectively (in order from left in the figure: Untreatment, LPS/ATP, LPS/ATP+1 μM compound, LPS/ATP+5 μM compound, and LPS/ATP+10 μM compound)."}, "[4]": {"tested_on": "primary bone marrow-derived macrophages (BMDMs)", "experiment": "ATP measurement in LPS-activated macrophages", "type": "cell-based, C57BL/6 mouse", "conditions": "LPS + 1, 5, 10 μM compound", "experimental": "The primary bone marrow-derived macrophages (BMDMs) isolated from C57BL/6 mouse were incubated in DMEM medium involving macrophage colony-stimulating factor (M-CSF; R&D Systems, 416-ML) during 3 to 5 days. ATP content in the cell was measured through using ATP colorimetric/fluorometric kit after activation of macrophages by treatment of 100 ng/mL LPS in DMEM medium including […]. All assays were performed according to the manufacturer's product manual.\nFIGS. 13 to 17 show the measurement of ATP amounts in the macrophage when treated with Compounds 6, 16, 17, 22 and 27 respectively (in order from left in the figure: Untreatment, LPS/ATP, LPS/ATP+1 μM compound, LPS/ATP+5 μM compound, and LPS/ATP+10 μM compound)."}, "[5]": {"tested_on": "primary bone marrow-derived macrophages (BMDMs)", "experiment": "OCR (oxygen consumption rate) measurement, Seahorse XF24", "type": "cell-based, C57BL/6 mouse", "conditions": "macrophages after treatment of LPS and ATP", "experimental": "The primary bone marrow-derived macrophages (BMDMs) isolated from C57BL/6 mouse were incubated in DMEM medium involving macrophage colony-stimulating factor (M-CSF; R&D Systems, 416-ML) during 3 to 5 days. OCR was measured using Seahorse XF24 Extracellular Flux Analyzer in isolated bone marrow-derived macrophages."}, "[6]": {"tested_on": "DSS-induced acute colitis mouse model", "experiment": "Efficacy in ulcerative colitis mouse model (DSS-induced acute colitis)", "type": "in vivo, C57BL/6 female mouse", "conditions": "5% DSS for 6 days", "experimental": "DSS-induced acute colitis mouse model was prepared using 6-week-old C57BL/6 female mouse in the following method from Opal S M et al., Jama., 309(11):1154-1162(2013) and Hotchkiss R S et al., Journal of immunology., 176(9):5471-5477(2006).\nThe clinical score in colitis were measured daily for body weight, rectal bleeding, total bleeding loss, and fecal concentration during colitis induction.\nFor immunohistochemistry of tissue section, mouse spleen, lung and colon were fixed using 10% formalin and embedded in paraffin. Paraffin sections were cut to a thickness of 4 μm, and H&E(hematoxylin and eosin) staining was performed. The histopathological score was measured in accordance with the criteria described in Osuchowski M F, et al., Journal of Immunology, 177(3):1967-74(2006); and Liu W, et al., Cell Research, 25(6): 691-706(2015).\nThe sandwich ELISAs and MPO assay were performed according to conventional methods in this field. TNF-α, IL-6, IL-1β, IL-18 ELISA(sandwich ELISAs) were performed using BD OptEIA ELISA Kit and MPO assay was performed using MPO Activity assay kit(ab105136) of Abcam company.\nThe data obtained from independent experiment (means±SD) was analyzed by using two-tailed Student's t-test. The differences were considered significant in p<0.05. For survival comparison, the results were graphically described and analyzed according to kaplan-Meier survival analysis, that is, the product-limit method, using log-rank(Mantel-Cox) tests (Prism, version 5.0, GraphPad Software)."}, "[7]": {"conditions": "colon tissue homogenate, treated during 20 days"}, "[8]": {"conditions": "treated during 10 days, vs non-treated mouse"}}}
{"smiles": "CC(C)c1nc2c([nH]1)C(=O)C(=O)c1ccccc1-2", "note": "[Compound 27]", "values": [{"measurement": "NQO1 Activity", "setting": "NQO1", "value": "2269 nmol of reduced Cytochrome C/min/μg NQO1 Protein"}, {"measurement": "NAD+ production", "setting": "[1]", "value": "increased in dose-dependent manner"}, {"measurement": "NAD+/NADH ratio", "setting": "[2]", "value": "increased in dose-dependent manner"}, {"measurement": "mitochondrial reactive oxygen species amounts", "setting": "[3]", "value": "decreased in dose-dependent manner"}, {"measurement": "ATP amounts", "setting": "[4]", "value": "increased in dose-dependent manner"}, {"measurement": "overall mitochondrial OCR", "setting": "[5]", "value": "increased"}, {"measurement": "MPO activity", "setting": "[6]; [7]", "value": "decreased"}, {"measurement": "cytokine expressions (TNF-α, IL-6, IL-1β and IL-18, ELISA)", "setting": "[6]; [7]", "value": "decreased"}, {"measurement": "expressions of sirtuin 1 and sirtuin 7", "setting": "[6]; [7]", "value": "significantly increased"}, {"measurement": "histological finding of colon tissue (immunohistochemistry, histological score, H&E)", "setting": "[6]; treated during 7 days, vs non-treated colon tissue", "value": "significantly improved than non-treated colon tissue"}, {"measurement": "colitis clinic scores (body weight, stool consistency, bleeding combined)", "setting": "[6]; [8]", "value": "significantly ameliorated compared with non-treated mouse"}, {"measurement": "degree of body weight loss", "setting": "[6]; [8]", "value": "significantly slower than non-treated mouse"}, {"measurement": "survival rates", "setting": "[6]; treated during 20 days, vs non-treated mouse", "value": "higher than non-treated mouse"}]}
